Experimental data as given in PMC7809356, “Structural characterization of a GNAT family acetyltransferase from Elizabethkingia anophelis bound to acetyl-CoA reveals a new dimeric interface” (Scientific Reports, 2021).

Columns and labels:
[1] = biological target: T1, GNAT family acetyltransferase from Elizabethkingia anophelis (BAY10_3400) (Elizabethkingia anophelis, UniProt Z9UBX7MZA9); assay: X-ray crystallography, […] A; format: binding; conditions: co-crystallised with 5 mM acetyl-CoA, 100 mM Tris/HCl pH 5.5, 2 M ammonium sulfate, 285 K; active site
T1 construct: full length, non-cleavable N-terminal His6-tag (vector BG1861), expressed in E. coli Rosetta BL21(DE3)R3; all residues modelled except N-terminal Met; monomer and dimer in SEC, crystal from dimer peak

[2] = biological target: GNAT family acetyltransferase from Elizabethkingia anophelis (Elizabethkingia anophelis); assay: SEC; preparative HiLoad 26/60 Superdex 75 in 25 mM HEPES, 500 mM NaCl, 5% glycerol, 2 mM DTT, 0.025% azide pH 7.0; calibrated with conalbumin, ovalbumin and ribonuclease A; molecular weights from the elution volume

In the case of CC(=O)SCCNC(=O)CCNC(=O)[C@H](O)C(C)(C)COP(=O)(O)OP(=O)(O)OC[C@H]1O[C@@H](n2cnc3c(N)ncnc32)[C@H](O)[C@@H]1OP(=O)(O)O [acetyl-CoA], the “X-ray crystallography, 1.85 A” value [1] is reported as “Our structure contained a well-ordered acetyl-CoA molecule bound in the active site”.
“GNAT family acetyltransferase from Elizabethkingia anophelis (enzyme)” gave a stoichiometry N [2] of 2.
